From the supplement of paper PMC10307832

Assays:
Test in all cases: relative viability (nuclei count vs DMSO), 5 days (fraction); higher = more cells survive
Selisistat + Luminespib = compound: C1CC(C2=C(C1)C3=C(N2)C=CC(=C3)Cl)C(=O)N [Selisistat] + CCNC(=O)c1noc(-c2cc(C(C)C)c(O)cc2O)c1-c1ccc(CN2CCOCC2)cc1 [Luminespib] (partner 0.01 µM)
Summary of the method: (§1)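 Five library-drug doses in √10 steps were combined with a fixed anchor-drug dose, or a single drug was given alone, by pin tool to lung cancer cell lines in 1536-well plates the day after seeding. Nuclei were stained and counted after 5 days. Relative viability is the nuclei count in treated wells over that in vehicle wells, taken as the median of duplicate plates.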

Serdemetan + AZD7762 = compound: c1ccc2c(CCNc3ccc(Nc4ccncc4)cc3)c[nH]c2c1 [Serdemetan] + NC(=O)Nc1cc(-c2cccc(F)c2)sc1C(=O)N[C@H]1CCCNC1 [AZD7762] (partner 0.2 µM)
Summary of the method: as §1

Selisistat + Olaparib = compound: C1CC(C2=C(C1)C3=C(N2)C=CC(=C3)Cl)C(=O)N [Selisistat] + O=C(c1cc(Cc2n[nH]c(=O)c3ccccc23)ccc1F)N1CCN(C(=O)C2CC2)CC1 [Olaparib] (partner 8 µM)
Summary of the method: as §1

Serdemetan + Pictilisib = compound: c1ccc2c(CCNc3ccc(Nc4ccncc4)cc3)c[nH]c2c1 [Serdemetan] + CS(=O)(=O)N1CCN(Cc2cc3nc(-c4cccc5[nH]ncc45)nc(N4CCOCC4)c3s2)CC1 [Pictilisib] (partner 1 µM)
Summary of the method: as §1

Cell Line | relative viability (Selisistat + Luminespib; first compound 0.4 µM) | relative viability (Selisistat + Luminespib; first compound 1.265 µM) | relative viability (Selisistat + Luminespib; first compound 4 µM) | relative viability (Selisistat + Luminespib; first compound 12.65 µM) | relative viability (Selisistat + Luminespib; first compound 40 µM) | relative viability (Serdemetan + AZD7762; first compound 0.04 µM) | relative viability (Serdemetan + AZD7762; first compound 0.1265 µM) | relative viability (Serdemetan + AZD7762; first compound 0.4 µM) | relative viability (Serdemetan + AZD7762; first compound 1.265 µM) | relative viability (Serdemetan + AZD7762; first compound 4 µM) | relative viability (Selisistat + Olaparib; first compound 0.4 µM) | relative viability (Selisistat + Olaparib; first compound 1.265 µM) | relative viability (Selisistat + Olaparib; first compound 4 µM) | relative viability (Selisistat + Olaparib; first compound 12.65 µM) | relative viability (Selisistat + Olaparib; first compound 40 µM) | relative viability (Serdemetan + Pictilisib; first compound 0.1265 µM) | relative viability (Serdemetan + Pictilisib; first compound 0.4 µM) | relative viability (Serdemetan + Pictilisib; first compound 1.265 µM) | relative viability (Serdemetan + Pictilisib; first compound 4 µM) | relative viability (Serdemetan + Pictilisib; first compound 0.04 µM)
ChaGo-K-1 | 0.586 | 0.581 | 0.648 | 0.526 | 0.61 | 0.876 | 0.801 | 0.75 | 0.507 | 0.545 | 0.439 | 0.409 | 0.438 | 0.351 | 0.388 | 0.832 | 0.649 | 0.421 | 0.659 | –
LOU-NH91 | 0.269 | 0.322 | 0.348 | 0.336 | 0.406 | 0.768 | 0.746 | – | – | 0.79 | 0.936 | 0.867 | 0.914 | 0.895 | 0.899 | 0.484 | – | 0.433 | 0.496 | 0.519
NCI-H2405 | 0.745 | 0.691 | 0.556 | 0.659 | 0.766 | 0.747 | 0.721 | 0.721 | 0.683 | 0.625 | 0.899 | 0.909 | – | 0.769 | 0.882 | 0.403 | 0.491 | 0.42 | 0.41 | 0.457
LCLC-97TM1 | 0.74 | 0.679 | – | 0.619 | 0.724 | 0.304 | 0.232 | 0.255 | 0.184 | 0.211 | 0.488 | 0.304 | – | 0.285 | 0.366 | 0.22 | 0.183 | 0.143 | 0.124 | 0.214
NCI-H596 | 0.981 | 0.938 | 1.08 | 0.668 | 0.775 | 1.17 | 1.19 | 1.08 | 0.922 | 1.16 | 0.802 | 0.715 | 0.643 | 0.619 | 0.609 | 0.411 | 0.346 | 0.332 | 0.339 | 0.41
NCI-H727 | 0.389 | 0.231 | – | 0.268 | 0.349 | 0.562 | 0.437 | 0.526 | 0.443 | 0.481 | 0.737 | 0.635 | 0.631 | 0.655 | 0.687 | 0.421 | 0.412 | 0.346 | 0.299 | 0.327
H3255 | 0.807 | 0.79 | 0.948 | 0.773 | 0.819 | 0.826 | 0.601 | 0.733 | 0.832 | 0.792 | 0.505 | 0.538 | 0.571 | 0.549 | 0.539 | 0.403 | 0.423 | 0.497 | 0.435 | 0.5
NCI-H1437 | 1.1 | 1.12 | 1.09 | 1.1 | 0.922 | 1.13 | 1.12 | 1.1 | 0.979 | 0.876 | 0.599 | 0.615 | 0.618 | 0.565 | 0.544 | 0.409 | 0.454 | 0.492 | 0.342 | 0.469
LU99A | 0.258 | 0.214 | 0.301 | 0.291 | 0.223 | 0.315 | 0.347 | 0.212 | 0.117 | 0.14 | 0.24 | 0.248 | 0.307 | 0.255 | 0.251 | 0.33 | 0.338 | 0.2 | 0.218 | 0.336
HCC-827 | 0.619 | 0.6 | 0.482 | 0.575 | 0.832 | 0.218 | 0.157 | – | 0.18 | 0.17 | 0.678 | 0.741 | 0.672 | 0.647 | 0.627 | 0.712 | – | 0.575 | 0.824 | 0.921
LK-2 | 0.193 | 0.161 | 0.182 | 0.198 | 0.188 | 0.454 | 0.304 | 0.357 | 0.269 | 0.251 | 0.721 | 0.652 | 0.675 | 0.588 | 0.782 | 0.578 | 0.687 | 0.362 | 0.301 | 0.479
BEN | 0.429 | 0.242 | 0.33 | 0.207 | 0.383 | 0.75 | 0.545 | 0.662 | 0.556 | 0.641 | 1.08 | 1.03 | 1.06 | 1.06 | 1.04 | 0.529 | 0.565 | 0.535 | 0.496 | 0.57
NCI-H23 | 0.188 | 0.203 | – | 0.204 | 0.197 | 0.274 | 0.235 | 0.261 | – | 0.208 | 0.234 | 0.353 | – | 0.305 | 0.31 | 0.571 | 0.459 | 0.439 | 0.543 | 0.536
NCI-H1395 | 0.871 | 0.682 | 0.702 | 0.66 | 0.455 | 0.42 | 0.398 | 0.415 | 0.369 | 0.384 | 0.474 | 0.47 | – | 0.451 | 0.465 | 0.619 | 0.676 | 0.485 | 0.475 | 0.574
201T | 1.14 | 1.12 | 0.983 | 1.04 | 1.01 | 0.624 | 0.502 | 0.846 | 0.378 | 0.422 | 0.85 | 0.841 | 0.827 | 0.823 | 0.843 | 0.712 | 0.67 | 0.655 | 0.664 | 0.707
NCI-H2170 | 0.653 | 0.726 | 0.76 | 0.843 | 0.696 | 0.891 | 0.964 | 0.873 | 0.746 | 0.758 | 0.596 | 0.581 | 0.647 | 0.585 | 0.664 | 0.34 | 0.311 | 0.28 | 0.349 | 0.365
NCI-H460 | 0.0268 | 0.0346 | 0.0301 | 0.0377 | 0.0409 | 0.461 | 0.547 | 0.571 | 0.229 | 0.141 | 0.452 | 0.404 | – | 0.319 | 0.403 | 0.366 | 0.27 | 0.287 | 0.253 | 0.339
